In test [1] the target is T1, glutathione-S-transferase (GST) tagged LXRbeta LBD (ligand binding domain) (Homo sapiens, UniProt P55055).
T1 construct: purchased Invitrogen pv4658.pps
T1 sequence (P55055 222-460 limits assumed): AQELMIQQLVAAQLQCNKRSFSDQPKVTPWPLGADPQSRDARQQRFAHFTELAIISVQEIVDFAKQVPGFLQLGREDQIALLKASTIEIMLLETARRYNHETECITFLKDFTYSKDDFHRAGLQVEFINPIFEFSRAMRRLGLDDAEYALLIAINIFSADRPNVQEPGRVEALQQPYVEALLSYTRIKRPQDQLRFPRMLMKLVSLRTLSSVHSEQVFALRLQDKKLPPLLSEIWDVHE
The experiment in a line: LanthaScreen TR-FRET Liver X Receptor Coactivator Assay, co-activator recruitment to LXRbeta LBD. The test is classed as biochemical. Particulars: for Emax: efficacy at max dose, in relation to reference dual agonist T0901317, read-out: LXR beta Activity @ max dose (%); for EC50: potency (Inflection Point, IP), co-activator recruitment to LXRbeta LBD, in relation to T0901317, read-out: LXR beta IP. The method in brief:
(§1)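 Readout is time-resolved FRET between a terbium anti-GST antibody bound to the LBD and a fluorescein-tagged coactivator peptide recruited on ligand binding. Plates were incubated at room temperature before reading. Potency (IP) and efficacy (Emax) are referenced to T0901317.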

Test [2] deals with T2, glutathione-S-transferase (GST) tagged LXRalpha LBD (ligand binding domain) (Homo sapiens, UniProt Q13133).
T2 construct: purchased Invitrogen pv4655
T2 sequence (Q13133 209-447 limits assumed): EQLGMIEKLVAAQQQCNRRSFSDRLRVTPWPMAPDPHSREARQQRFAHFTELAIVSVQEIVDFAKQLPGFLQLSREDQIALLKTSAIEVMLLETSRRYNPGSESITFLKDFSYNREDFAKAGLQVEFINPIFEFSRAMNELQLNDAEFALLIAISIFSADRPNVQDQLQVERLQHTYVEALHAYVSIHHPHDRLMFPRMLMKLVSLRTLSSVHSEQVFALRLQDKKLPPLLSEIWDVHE
The experiment in a line: LanthaScreen TR-FRET Liver X Receptor Coactivator Assay, co-activator recruitment to LXRalpha LBD. The test is classed as biochemical. To be noted: for Emax: efficacy at max dose, in relation to reference dual agonist T0901317, read-out: LXR alpha Activity @ max dose (%); for EC50 / LXR alpha IP (nM): potency (Inflection Point, IP), co-activator recruitment to LXRalpha LBD, in relation to T0901317; for EC50: read-out: LXR alpha IP. The method in brief:
as §1

On to `Cc1cc(N2CCC(CC3(C)CCN(C(=O)[C@](O)(c4cc(F)cc(Cl)c4)C(F)(F)F)CC3)CC2)ccc1C(=O)N(C)C` [Example 2-75, 4-[4-({1-[(2R)-2-(3-chloro-5-fluorophenyl)-3,3,3-trifluoro-2-hydroxy-propanoyl]-4-methylpiperidin-4-yl}methyl)piperidin-1-yl]-N,N,2-trimethyl-benzamide], for which, in test [1], the Emax amounted to 80% and the EC50 turned out to be 12 nM. Also, in test [2], the Emax worked out at 31% and the EC50 amounted to 167 nM.

With `Cc1cc(N2CCC(CC3(C)CCN(C(=O)[C@](O)(c4cccc(Cl)c4)C(F)(F)F)CC3)CC2)ccc1C(=O)N(C)C` [Example 2-76, 4-[4-({1-[(2R)-2-(3-chloro-phenyl)-3,3,3-trifluoro-2-hydroxy-propanoyl]-4-methylpiperidin-4-yl}methyl)piperidin-1-yl]-N,N,2-trimethyl-benzamide], in test [1], the Emax stood at 46% and the EC50 turned out to be 14 nM. Also, in test [2], the Emax worked out at 4% and the “LXR alpha IP (nM)” value is reported as “NO IP”.

As for `Cc1cc(N2CCC(CC3(C)CCN(C(=O)[C@](O)(c4cccc(OC(C)C)c4)C(F)(F)F)CC3)CC2)ccc1C(=O)N(C)C` [Example 2-77, N,N,2-trimethyl-4-{4-[(4-methyl-1-{(2R)-3,3,3-trifluoro-2-hydroxy-2-[3-(1-methylethoxy)phenyl]propanoyl}piperidin-4-yl)methyl]piperidin-1-yl}benzamide], in test [1], the Emax is 44% and the EC50 came out at 45 nM. In addition, in test [2], the Emax is 2% and the “LXR alpha IP (nM)” value is “NO IP”.

Consider `CCc1cccc([C@@](O)(C(=O)N2CCC(C)(CC3CCN(c4ccc(C(=O)N(C)C)c(C)c4)CC3)CC2)C(F)(F)F)c1` [Example 2-78, 4-[4-({1-[(2R)-2-(3-ethylphenyl)-3,3,3-trifluoro-2-hydroxy-propanoyl]-4-methylpiperidin-4-yl}methyl)piperidin-1-yl]-N,N,2-trimethyl-benzamide], for which, in test [1], the Emax amounted to 20% and the EC50 came to 32 nM. In addition, in test [2], the Emax came out at 1% and the “LXR alpha IP (nM)” value was “NO IP”.

With `CCOc1cccc([C@@](O)(C(=O)N2CCC(C)(CC3CCN(c4ccc(C(=O)N(C)C)c(C)c4)CC3)CC2)C(F)(F)F)c1` [Example 2-79, 4-[4-({1-[(2R)-2-(3-ethoxy-phenyl)-3,3,3-trifluoro-2-hydroxy-propanoyl]-4-methylpiperidin-4-yl}methyl)piperidin-1-yl]-N,N,2-trimethyl-benzamide], in test [1], the Emax stood at 30% and the EC50 turned out to be 40 nM. In addition, in test [2], the Emax stood at 0% and the “LXR alpha IP (nM)” value is “NO IP”.

Turning to `COc1cccc([C@@](O)(C(=O)N2CCC(C)(CC3CCN(c4ccc(C(=O)N(C)C)c(C)c4)CC3)CC2)C(F)(F)F)c1` [Example 2-80, N,N,2-trimethyl-4-[4-({4-methyl-1-[(2R)-3,3,3-trifluoro-2-hydroxy-2-(3-methoxyphenyl)propanoyl]piperidin-4-yl}methyl)piperidin-1-yl]benzamide], in test [1], the Emax was determined as 19% and the EC50 worked out at 19 nM. In test [2], the Emax amounted to 0% and the “LXR alpha IP (nM)” value is recorded as “NO IP”.

Regarding `Cc1cc(N2CCC(CC3CN(C(=O)[C@](O)(c4cc(F)cc(Cl)c4)C(F)(F)F)C3)CC2)ccc1C(=O)N(C)C` [Example 2-81, 4-[4-({1-[(2R)-2-(3-chloro-5-fluorophenyl)-3,3,3-trifluoro-2-hydroxy-propanoyl]azetidin-3-yl}methyl)piperidin-1-yl]-N,N,2-trimethyl-benzamide], in test [1], the Emax amounted to 103% and the EC50 was 39 nM. Moreover, in test [2], the Emax turned out to be 40% and the EC50 came to 798 nM.

For the compound `CC(C)Oc1cccc(C(O)(C(=O)N2CCC(CC3CCN(c4ccc(C(=O)N(C)C)c(Cl)c4)CC3)CC2)C(F)(F)F)c1` (centres unmarked) [Example 2-82, 2-chloro-N,N-dimethyl-4-{4-[(1-{3,3,3-trifluoro-2-hydroxy-2-[3-(1-methyl-ethoxy)phenyl]propanoyl}piperidin-4-yl)methyl]piperidin-1-yl}benzamide], in test [1], the Emax stood at 50% and the EC50 was 12 nM. In test [2], the Emax was determined as 13% and the “LXR alpha IP (nM)” value was “NO IP”.

Turning to `CN(C)C(=O)c1ccc(N2CCC(CC3CCN(C(=O)[C@](O)(c4cccc(Br)c4)C(F)(F)F)CC3)CC2)cc1Cl` [Example 2-83, 4-[4-({1-[(2R)-2-(3-bromo-phenyl)-3,3,3-trifluoro-2-hydroxy-propanoyl]piperidin-4-yl}methyl)piperidin-1-yl]-2-chloro-N,N-dimethyl-benzamide], in test [1], the Emax amounted to 68% and the EC50 turned out to be 4 nM. Besides, in test [2], the Emax worked out at 26% and the EC50 stood at 83 nM.

Consider `CN(C)C(=O)c1ccc(N2CCC(CC3CCN(C(=O)[C@](O)(c4cccc(F)c4)C(F)(F)F)CC3)CC2)cc1Cl` [Example 2-84, 2-chloro-N,N-dimethyl-4-[4-({1-[(2R)-3,3,3-trifluoro-2-(3-fluoro-phenyl)-2-hydroxy-propanoyl]piperidin-4-yl}methyl)piperidin-1-yl]benzamide], for which the results for the Emax in test [1] and in test [2] were 83% and 38%, respectively. The EC50 in test [1] stood at 7 nM; in test [2], 140 nM.

As to `CN(C)C(=O)c1ccc(N2CCC(CC3CCN(C(=O)[C@](O)(c4ccccc4F)C(F)(F)F)CC3)CC2)cc1Cl` [Example 2-85, 2-chloro-N,N-dimethyl-4-[4-({1-[(2R)-3,3,3-trifluoro-2-(2-fluorophenyl)-2-hydroxy-propanoyl]piperidin-4-yl}methyl)piperidin-1-yl]benzamide], the Emax is 68% in test [1] and 21% in test [2]. Also, the EC50 was determined as 17 nM in test [1] and 554 nM in test [2].

In the case of `CN(C)C(=O)c1ccc(N2CCC(CC3CCN(C(=O)[C@](O)(c4cccc(Cl)c4)C(F)(F)F)CC3)CC2)cc1Cl` [Example 2-86, 2-chloro-4-[4-({1-[(2R)-2-(3-chloro-phenyl)-3,3,3-trifluoro-2-hydroxy-propanoyl]piperidin-4-yl}methyl)piperidin-1-yl]-N,N-dimethyl-benzamide], in test [1], the Emax was 68% and the EC50 was found to be 6 nM. Further, in test [2], the Emax came out at 22% and the EC50 worked out at 98 nM.

In the case of `CN(C)C(=O)c1ccc(N2CCC(CC3CCN(C(=O)[C@](O)(c4cccc(O)c4)C(F)(F)F)CC3)CC2)cc1Cl` [Example 2-87, 2-chloro-N,N-dimethyl-4-[4-({1-[(2R)-3,3,3-trifluoro-2-hydroxy-2-(3-hydroxyphenyl)propanoyl]piperidin-4-yl}methyl)piperidin-1-yl]benzamide], in test [1], the Emax is 74% and the EC50 was found to be 19 nM. For the same compound, in test [2], the Emax was 14% and the “LXR alpha IP (nM)” value is given as “NO IP”.

Take `CN(C)C(=O)c1ccc(N2CCC(CC3CCN(C(=O)[C@](O)(c4cccc(C#N)c4)C(F)(F)F)CC3)CC2)cc1Cl` [Example 2-88, 2-chloro-4-[4-({1-[(2R)-2-(3-cyanophenyl)-3,3,3-trifluoro-2-hydroxy-propanoyl]piperidin-4-yl}methyl)piperidin-1-yl]-N,N-dimethyl-benzamide]: the Emax in test [1] is 79%; in test [2], 29%. The EC50 in test [1] amounted to 11 nM; in test [2], 137 nM.

For `COc1cccc([C@@](O)(C(=O)N2CCC(CC3CCN(c4ccc(C(=O)N(C)C)c(Cl)c4)CC3)CC2)C(F)(F)C(F)(F)F)c1` [Example 2-89, 2-chloro-N,N-dimethyl-4-[4-({1-[(2R)-3,3,4,4,4-pentafluoro-2-hydroxy-2-{3-methoxyphenyl)butanoyl]piperidin-4-yl}methyl)piperidin-1-yl]benzamide], in test [1], the Emax amounted to 83% and the EC50 turned out to be 21 nM. Besides, in test [2], the Emax was determined as 23% and the EC50 stood at 304 nM.

As for `CN(C)C(=O)c1ccc(N2CCC(CC3CCN(C(=O)C(O)(c4cccnc4)C(F)(F)F)CC3)CC2)cc1Cl` (centres unmarked) [Example 2-90, 2-chloro-N,N-dimethyl-4-(4-{[1-(3,3,3-trifluoro-2-hydroxy-2-pyridin-3-ylpropanoyl)piperidin-4-yl]methyl}piperidin-1-yl)benzamide], the Emax is 99% in test [1] and 46% in test [2]. Also, the EC50 was 78 nM in test [1] and 3550 nM in test [2].

Turning to `CN(C)C(=O)c1ccc(N2CCC(CC3CCN(C(=O)[C@](O)(c4cccc(OC(F)(F)F)c4)C(F)(F)F)CC3)CC2)cc1Cl` [Example 2-91, 2-chloro-N,N-dimethyl-4-{4-[(1-{(2R)-3,3,3-trifluoro-2-hydroxy-2-[3-(trifluoro-methoxy)phenyl]propanoyl}piperidin-4-yl)methyl]piperidin-1-yl}benzamide], the Emax in test [1] was found to be 58%; in test [2] it was 20%. Further, the EC50 in test [1] was 23 nM; in test [2], 199 nM.

Values taken from patent US10752587B2, “Homobispiperidinyl derivatives as liver X receptor beta agonists, compositions and their use” (Merck Sharp & Dohme Corp., priority 2015, dated 2020).
